Results from US20240190879A1, “FUSED BICYCLIC COMPOUNDS USEFUL FOR MODULATING NUCLEIC ACID SPLICING” (REMIX THERAPEUTICS INC., priority 2020, published 2024).

Assays:
Assay type in all cases: cell-based
[1] = system: HTT mRNA alternative junction (AJ); experiment: RT-qPCR splicing assay, HTT alternative junction (AJ) mRNA increase; conditions: A673 or K562 cell line, 24 hours treatment; concentration having 50% response in AJ mRNA increase
Protocol: (§1) Compounds described herein were used to modulate RNA transcript abundance in cells. The expression of a target mRNA was measured by detecting the formation of an exon-exon junction in the canonical transcript (CJ). A compound mediated exon-inclusion event was detected by observing an increase in formation of a new junction with an alternative exon (AJ). Real-time qPCR assays were used to detect these splicing switches and interrogate the potency of various compounds towards different target genes. A high-throughput real time quantitative PCR (RT-qPCR) assay was developed to measure these two isoforms of the mRNA (CJ and AJ) for an exemplary gene, HTT, together with a control housekeeping gene, GAPDH or GUSB or PPIA, used for normalization. Briefly, the A673 or K562 cell line was treated with various compounds described herein (e.g., compounds of Formula (I)). After treatment, the levels of the HTT mRNA targets were determined from each sample of cell lysate by cDNA synthesis followed by qPCR.
(§2) The A673 cell line was cultured in DMEM with 10% FBS. Cells were diluted with full growth media and plated in a 96-well plate (15,000 cells in 100 ul media per well). The plate was incubated at 37° C. with 5% CO2 for 24 hours to allow cells to adhere. An 11-point 3-fold serial dilution of the compounds was made in DMSO then diluted in media in an intermediate plate. Compounds were transferred from the intermediate plate to the cell plate with the top dose at a final concentration of 10 uM in the well. Final DMSO concentration was kept at or below 0.25%. The cell plate was returned to the incubator at 37° C. with 5% CO2 for an additional 24 hours.
(§3) The K562 cell line was cultured in IMDM with 10% FBS. For K562, cells were diluted with full growth media and plated in either a 96-well plate (50,000 cells in 50 uL media per well) or a 384-well plate (8,000-40,000 cells in 45 uL media per well). An 11-point 3-fold serial dilution of the compounds were made in DMSO then diluted in media in an intermediate plate. Compound was transferred from the intermediate plate to the cell plate with the top dose at a final concentration of 10 uM in the well. Final DMSO concentration was kept at or below 0.25%. Final volume was 100 uL for 96-well plate and 50 uL for 384-well plate. The cell plate was then placed in an incubator at 37° C. with 5% CO2 for 24 hours.
(§4) The cells were then gently washed with 50 uL-100 uL cold PBS before proceeding to addition of lysis buffer. 30 uL-50 uL of room temperature lysis buffer with DNAse I (and optionally RNAsin) was added to each well. Cells were shaken/mixed thoroughly at room temperature for 5-10 minutes for lysis to take place and then 3 uL-5 uL of room temperature stop solution was added and wells were shaken/mixed again. After 2-5 minutes, the cell lysate plate was transferred to ice for RT-qPCR reaction setup. The lysates could also be frozen at −80° C. for later use.
(§5) In some cases, a direct lysis buffer was used. An appropriate volume of 3×lysis buffer (10 mM Tris, 150 mM NaCl, 1.5%-2.5% Igepal and 0.1-1 U/uL RNAsin, pH 7.4) was directly added to either K562 or A673 cells in media and mixed by pipetting 3 times. The plates were then incubated at room temperature with shaking/rocking for 20-50 minutes to allow for lysis to take place. After this time, the cell lysate plate was transferred to ice to set up for the RT-qPCR reactions. The lysates could also be frozen at −80° C. for later use.
(§6) To set up 10 uL RT-qPCR reactions, cell lysates were transferred to 384-well qPCR plates containing the master mix according to the table below. The plates were sealed, gently vortexed, and spun down before the run. The volumes were adjusted accordingly in some instances where the reaction was carried in 20 uL. The table below summarizes the components of the RT-qPCR reactions:
(§7) The RT-qPCR reaction was performed using a QuantStudio (ThermoFisher) under the following fast cycling conditions. […]

[2] = system: HTT mRNA canonical junction (CJ); experiment: RT-qPCR splicing assay, HTT canonical junction (CJ) mRNA decrease; conditions: A673 or K562 cell line, 24 hours treatment; concentration having 50% response in CJ mRNA decrease
Protocol: as §1, §2, §3, §4, §5, §6, §7

Target C CJ mRNA = experiment: Gene panel canonical junction qPCR assay, Target C; conditions: larger gene panel; concentration having 50% response in CJ decrease; read-out: Target C IC50 (decrease in CJ mRNA levels)
Protocol: as §1
(§8) The data analysis was performed by first determining the ΔCt vs the housekeeper gene. This ΔCt was then normalized against the DMSO control (ΔΔCt) and converted to RQ (relative quantification) using the 2^(−ΔΔCt) equation. The RQ were then converted to a percentage response by arbitrarily setting an assay window of 3.5 ΔCt for HTT-CJ and an assay window of 9 ΔCt for HTT-AJ. […] The percentage response was then fitted to the 4 parametric logistic equation to evaluate the concentration dependence of compound treatment. The increase in AJ mRNA is reported as AC50 (compound concentration having 50% response in AJ increase) while the decrease in CJ mRNA levels is reported as IC50 (compound concentration having 50% response in CJ decrease).
(§9) Additional studies were carried out for a larger panel of genes using the protocol provided above. The junction between flanking upstream and downstream exons was used to design canonical junction qPCR assays. At least one of the forward primer, reverse primer or the CY5-labeled 5′ nuclease probe (with 3′ quencher such as ZEN/Iowa Black FQ) was designed to overlap with the exon junction to capture the CJ mRNA transcript. BLAST was used to confirm the specificity of the probeset and parameters such as melting temperature, GC content, amplicon size, and primer dimer formation are considered during their design. Data for the decrease in CJ mRNA levels for three exemplary genes (HTT, SMN2, and Target C) analyzed in this panel are reported as IC50 (compound concentration having 50% response in CJ decrease).

SMN2 CJ mRNA = experiment: Gene panel canonical junction qPCR assay, SMN2; conditions: larger gene panel; concentration having 50% response in CJ decrease; read-out: SMN2 IC50 (decrease in CJ mRNA levels)
Protocol: as §1, §8, §9

HTT CJ mRNA = experiment: Gene panel canonical junction qPCR assay, HTT; conditions: larger gene panel; concentration having 50% response in CJ decrease; read-out: HTT IC50 (decrease in CJ mRNA levels)
Protocol: as §1, §8, §9

## Cc1cn2cc(-c3cccc4c(N5CCNCC5)nncc34)nc2c(C)n1 [Compound 100, 5-[6,8-dimethylimidazo[1,2-a]pyrazin-2-yl]-1-(piperazin-1-yl)phthalazine]
[1]
  AC50: > 10 µM
[2]
  AC50: > 10 µM

## COc1cc(N2CCNCC2)c2cccc(-c3cc(F)c4nc(C)cn4c3)c2n1 [Compound 138, 8-[8-fluoro-2-methylimidazo[1,2-a]pyridin-6-yl]-2-methoxy-4-(piperazin-1-yl) quinoline]
Target C CJ mRNA
  IC50: > 10 µM
SMN2 CJ mRNA
  IC50: 0.1 to 1 µM
[1]
  AC50: > 10 µM
[2]
  AC50: > 10 µM
HTT CJ mRNA
  IC50: > 10 µM

## Cc1cn2cc(NC(=O)c3cccc4c(N(C)C5CCN(C)CC5)cnnc34)cc(F)c2n1 [Compound 213]
Target C CJ mRNA
  IC50: 1 to 10 µM
SMN2 CJ mRNA
  IC50: 1 to 10 µM
[1]
  AC50: 1 to 10 µM
[2]
  AC50: 1 to 10 µM
HTT CJ mRNA
  IC50: 1 to 10 µM

## Cc1cn2cc(NC(=O)c3cccc4c(C5CCNCC5)cnnc34)cc(F)c2n1 [Compound 114, N-[8-fluoro-2-methylimidazo[1,2-a]pyridin-6-yl]-4-(piperidin-4-yl)cinnoline-8-carboxamide]
[1]
  AC50: > 10 µM
[2]
  AC50: > 10 µM

## Cc1cn2cc(-c3cccc4c(N5CCCCC5)nncc34)nc2c(C)n1 [Compound 108, 5-[6,8-dimethylimidazo[1,2-a]pyrazin-2-yl]-1-(piperidin-1-yl)phthalazine]
Target C CJ mRNA
  IC50: 1 to 10 µM
[1]
  AC50: > 10 µM
[2]
  AC50: > 10 µM

## Cc1cn2nc(-c3cccc4c(N5CCNCC5)nncc34)cc(C)c2n1 [Compound 101, 5-[2,8-dimethylimidazo[1,2-b]pyridazin-6-yl]-1-(piperazin-1-yl)phthalazine]
Target C CJ mRNA
  IC50: 1 to 10 µM
[1]
  AC50: 1 to 10 µM
[2]
  AC50: > 10 µM

## COc1cc(N2CCNCC2)c2cccc(-c3cc(C)c4nc(C)cn4n3)c2n1 [Compound 134, 8-[2,8-dimethylimidazo[1,2-b]pyridazin-6-yl]-2-methoxy-4-(piperazin-1-yl) quinoline]
Target C CJ mRNA
  IC50: 1 to 10 µM
[1]
  AC50: 1 to 10 µM
[2]
  AC50: 1 to 10 µM

## Cc1cn2nc(NC(=O)c3cccc4c(C5CCNCC5)cnnc34)cc(C)c2n1 [Compound 112, N-[2,8-dimethylimidazo[1,2-b]pyridazin-6-yl]-4-(piperidin-4-yl)cinnoline-8-carboxamide]
Target C CJ mRNA
  IC50: 1 to 10 µM
[1]
  AC50: > 10 µM
[2]
  AC50: > 10 µM

## Cc1cn2cc(NC(=O)c3cccc4c(N(C)C5CC(C)(C)NC(C)(C)C5)cnnc34)cc(F)c2n1 [Compound 184, N-[8-fluoro-2-methylimidazo[1,2-a]pyridin-6-yl]-4-[methyl(2,2,6,6-tetramethylpiperidin-4-yl)amino]cinnoline-8-carboxamide]
Target C CJ mRNA
  IC50: 1 to 10 µM
SMN2 CJ mRNA
  IC50: 1 to 10 µM
[1]
  AC50: 1 to 10 µM
[2]
  AC50: 1 to 10 µM
HTT CJ mRNA
  IC50: 1 to 10 µM

## Cc1cn2nc(-c3cccc4c3CCC(=O)N4C3CCNCC3)cc(C)c2n1 [Compound 185]
SMN2 CJ mRNA
  IC50: > 10 µM
[1]
  AC50: > 10 µM
[2]
  AC50: 1 to 10 µM
HTT CJ mRNA
  IC50: 1 to 10 µM

## Cc1cn2cc(NC(=O)c3cccc4c(N5CCNCC5)cnnc34)cc(F)c2n1 [Compound 113, N-[8-fluoro-2-methylimidazo[1,2-a]pyridin-6-yl]-4-(piperazin-1-yl)cinnoline-8-carboxamide]
Target C CJ mRNA
  IC50: < 0.1 µM
SMN2 CJ mRNA
  IC50: < 0.1 µM
[1]
  AC50: 1 to 10 µM
[2]
  AC50: > 10 µM
HTT CJ mRNA
  IC50: > 10 µM

## Cc1cn2nc(-c3cccc4c(C5CCNCC5)nncc34)cc(C)c2n1 [Compound 104, 5-[2,8-dimethylimidazo[1,2-b]pyridazin-6-yl]-1-(piperidin-4-yl)phthalazine]
[1]
  AC50: > 10 µM

## c1cc(-c2cn[nH]c2)c2cnnc(N3CCNCC3)c2c1 [Compound 102, 1-(piperazin-1-yl)-5-(1H-pyrazol-4-yl)phthalazine]
SMN2 CJ mRNA
  IC50: > 10 µM
[1]
  AC50: > 10 µM
[2]
  AC50: > 10 µM
HTT CJ mRNA
  IC50: > 10 µM

## Cc1cn2cc(-c3cccc4c(C5=CCNCC5)nncc34)nc2c(C)n1 [Compound 109, 5-[6,8-dimethylimidazo[1,2-a]pyrazin-2-yl]-1-(1,2,3,6-tetrahydropyridin-4-yl)phthalazine]
Target C CJ mRNA
  IC50: 1 to 10 µM
[1]
  AC50: > 10 µM
[2]
  AC50: > 10 µM

## Cc1cn2cc(NC(=O)c3cccc4c(N5CCC(NC(C)(C)C)C5)cnnc34)cc(F)c2n1 (stereo not shown) [Compound 122, 4-[3-(tert-butylamino)pyrrolidin-1-yl]-N-[8-fluoro-2-methylimidazo[1,2-a]pyridin-6-yl]cinnoline-8-carboxamide]
[1]
  AC50: > 10 µM
[2]
  AC50: > 10 µM

## Cc1cn2nc(NC(=O)c3cccc4c(N5CCNCC5)cnnc34)cc(C)c2n1 [Compound 111, N-[2,8-dimethylimidazo[1,2-b]pyridazin-6-yl]-4-(piperazin-1-yl)cinnoline-8-carboxamide]
[1]
  AC50: > 10 µM
[2]
  AC50: > 10 µM
